Assay results taken from US8362072B2, “BRCA1-based breast or ovarian cancer treatment agents and methods of use” (University of Kansas, priority 2007, dated 2013).

Assays:
BRCA1 protein = BRCA1 protein expression in MCF7 cells by Western blot; assay type: cell-based, human; conditions: 48 hours, compared to DMSO
Experimental: Compounds 29 and 30 were studied for BRCA1 and actin (e.g., housekeeping gene for normalization) protein expression. Briefly, MCF7 cells (2×10^6) in 2 ml MEM were plated in a 6 well tissue culture plate and were either left nonstimulated or treated with DMSO (vehicle control), […] Genistein, or 3 different concentrations of indicated test compound—3.65 μM, […], 32.5 μM. Following incubation at 37° C. for 48 hours, the media was removed and the cells were washed 1× with 500 μl of ice cold PBS. Another 500 μl of ice cold PBS was then added and the cells were scraped off the well and transferred to a microcentrifuge tube. To ensure all cells were removed from the well, an additional […] of ice cold PBS was added to the well and any remaining cells were combined with the initial cell harvest into the microcentrifuge tube. The cells were then pelleted by centrifugation for 5 min at 3000 rpm, 4° C. The supernate was removed and the pellet was then lysed in 150 μl of ice cold RIPA buffer+1× protease inhibitors, on ice for 30 minutes, vortexing occasionally. The cellular debris was then removed by centrifugation for 20 minutes at 11,000 rpm, 4° C. The remaining supernate, containing the extracted proteins, was then transferred to a microcentrifuge tube and quantified using the Bio-Rad DC assay. 100 μg of protein+1×SDS-PAGE sample buffer was loaded onto an 8% Tris glycine gel. The proteins were separated in a tris glycine running buffer at 125 volts for 90 minutes. The proteins were then transferred out of the gel onto PVDF in an overnight transfer with 20% methanol at 35 volts, 4° C. The PVDF membrane was then blocked with 5% milk/PBST (0.1%) for 1 hour at room temperature (RT). BRCA1 protein was detected using anti-BRCA1 (Ab-1, EMD Biosciences) at a 1:250 dilution in 3% milk/PBST, overnight at 4° C. […] To monitor equal protein loading, actin was detected using anti-actin at a 1:200,000 dilution in 5% milk/PBST for 1 hr at RT. […] Chemiluminescence was detected using the SuperSignal West Femto kit made by Pierce Biotechnology and the UVP imaging center. […]

BRCA1 RNA = BRCA1 RNA expression in MCF7 cells by qRT-PCR (TaqMan, 18S normalised); assay type: cell-based, human; conditions: 48 hours, 3.65-32.5 μM, compared to DMSO and genistein
Experimental: Compounds 29 and 30 were studied for BRCA1 and 18S (e.g., housekeeping gene for normalization) RNA expression. Briefly, MCF7 cells (2×10^6) in 2 ml MEM were plated in a 6 well tissue culture plate and were either left nonstimulated or treated with DMSO (vehicle control), 10 μM Genistein, or 3 different concentrations of indicated test compound—3.65 μM, 10.8 μM, 32.5 μM. Following incubation at 37° C. for 48 hours, the media was removed and RNA was extracted per manufacturer's protocol using the RNeasy Plus RNA extraction kit made by Qiagen. Complementary DNA (cDNA) was generated per manufacturer's protocol from 1000 ng extracted RNA in a 60 μl volume using the High Capacity cDNA kit made by Applied Biosystems. Gene expression of BRCA1 and 18S was detected with the TaqMan Gene Expression assay kit made by Applied Biosystems. […] The […] reaction was run on either the ABI real time system 7500 or 7000 (see, Analysis of Relative Gene Expression Data Using Real-Time Quantitative PCR and the 2^−ΔΔCT Method. Kenneth J. Livak^a and Thomas D. Schmittgen^b, 1. ^a Applied Biosystems, Foster City, Calif., 94404 ^b Department of Pharmaceutical Sciences, College of Pharmacy, Washington State University, Pullman, Wash., 99164-6534. Methods, Volume 25, Issue 4, December 2001, Pages 402-408).

human BRCA1 promoter = assay: BRCA1-luciferase reporter assay (Steady-Glo) in stably transfected MCF7 cells; assay type: cell-based; conditions: Homo sapiens, MCF7-BRCA1-luciferase cells, dilution series; for EC50: MCF7, 48 h; for EC90: 48 hours
Experimental: Hygromycin selected MCF7 cells were seeded in 384-well tissue culture plates. The first two columns of each plate were empty so as to include established positive and negative controls. Each of the remaining 352 wells contained a compound to be screened. MCF7 cells were incubated with the compounds for 48 hours. Luciferase activity was measured using the Steady Glo Luciferase Assay System (Promega). Briefly, 5×10^6 MCF7 cells were transfected with […] of purified pGL4.14 containing the human BRCA1 promoter (pGL4.14-hBRCA) with Effectene as per manufacturers protocol (Qiagen). Stable transfectants were selected with […] Hygromicin B. 1×10^5 or 2×10^5 stable transfectants were tested for luciferase activity with the Steady-Glo Luciferase Assay System (Promega).
Hygromycin selected MCF-7 cells (e.g., MCF7 clone pGL4.14-hBRCA1.3) stably transfected with the human BRCA1-luciferase reporter construct (e.g., pGL4.14-hBRCA1.3) were seeded in 384-well white tissue culture plates (Becton Dickenson, San Diego, Calif.) at 1×10^4 cells/well. These cells were then stimulated with indicated concentrations of genistein (Sigma-Aldrich, St. Louis, Mo.) for 0, 6, 9, 24 and 48 hours. Luciferase activity was measured using the Steady Glo Luciferase Assay System (Promega). The data shown in FIG. 3A is representative of 3 individual experiments.
Two different chemical libraries were screened for the ability to enhance BRCA1 gene expression. To examine the effects of each compound on BRCA1 expression, the human BRCA1 promoter was cloned and inserted upstream of the firefly luciferase gene in the plasmid pGL4.14 (BRCA1-Luc) (Promega), as described above. The ER positive human breast cancer cell line, MCF7, was transfected and stable transfectants were selected with hygromycin.
Briefly, compounds were plated in a 384 well plate in a total volume of 20 μl. A ten point dilution series was used at concentrations—100 µM, 10 μM, 1 μM, 100 nM, 10 nM, 1 nM, 0.1 nM, 0.01 nM, 0.0001 nM, 0 (DMSO vehicle only). A second dilution series of 100 μM, 32.5 μM, […], 3.6 μM, 1.2 μM, 400 nM, 132.2 nM, 45 nM, 14.8 nM, 5 nM, and 1.65 nM was also used. MCF7-BRCA1-luciferase cells were added to the compounds at a concentration of 1×10^4 cells/well in a volume of 25 μl. The 384 well plates, containing the compounds+cells, were then incubated at 37° C. for 48 hours. After 48 hours, luciferase activity was measured with the Steady-Glo® Luciferase Assay System (Promega, Madison, Wis.).

For Cc1ccc(OCC(=O)O/N=C(\N)c2ccccn2)c(C)c1 [Cmpd 29], the BRCA1 protein expression (BRCA1 protein) was “increase endogenous BRCA1”, the “BRCA1 RNA expression” value (BRCA1 RNA) was “increase BRCA1 RNA expression” and the EC50 (human BRCA1 promoter) was 8.49 µM. The EC90 (human BRCA1 promoter) was 91.8 µM.

In the case of CCc1ccc(OCC(=O)O/N=C(\N)c2ccncc2)c(C)c1 [Cmpd 30], the BRCA1 protein expression (BRCA1 protein) is reported as “increase endogenous BRCA1”, the “BRCA1 RNA expression” value (BRCA1 RNA) is reported as “increase BRCA1 RNA expression” and the EC50 (human BRCA1 promoter) is reported as 4.13 µM. For the same compound, the EC90 (human BRCA1 promoter) was 55.4 µM.
